Values joined by “and” are separate entries in the source; they are usually repeats but may differ in a detail not shown here. Equal entries are not always repeated. Toxic doses and inconclusive results are not listed. Cut-off read from the data, not from the text of the source: active = T/C of 150% or more; inactive = T/C below 125%.
Test system: L1210 leukemia ip in BDF1 mice, survival T/C
Experiment: NCI In Vivo Anticancer Drug Screen. Data for tumor model L1210 Leukemia (intraperitoneal) in B6D2F1 (BDF1) mice
Settings: endpoint: mean survival time, higher = longer survival
Summary of the method: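 Each compound was tested against a transplantable tumor grown in mice. The endpoint was survival, with treated animals benchmarked against vehicle controls as a simple ratio.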

[1] = dose: 100.0 mg/kg/injection, schedule: Q01DX001 (ip), vehicle: saline
[2] = dose: 200.0 mg/kg/injection, schedule: Q01DX001 (ip), vehicle: saline
[3] = dose: 400.0 mg/kg/injection, schedule: Q01DX001 (ip), vehicle: saline
[4] = dose: 100.0 mg/kg/injection, schedule: Q01DX001 (ip), vehicle: Klucel (hydroxypropylcellulose) (HPC)
[5] = dose: 100.0 mg/kg/injection, schedule: Q01DX009 (ip), vehicle: Klucel (hydroxypropylcellulose) (HPC)
[6] = dose: 100.0 mg/kg/injection, schedule: Q04DX003 (ip), vehicle: Klucel (hydroxypropylcellulose) (HPC)
[7] = dose: 200.0 mg/kg/injection, schedule: Q01DX001 (ip), vehicle: Klucel (hydroxypropylcellulose) (HPC)
[8] = dose: 200.0 mg/kg/injection, schedule: Q01DX009 (ip), vehicle: Klucel (hydroxypropylcellulose) (HPC)
[9] = dose: 200.0 mg/kg/injection, schedule: Q04DX003 (ip), vehicle: Klucel (hydroxypropylcellulose) (HPC)
[10] = dose: 400.0 mg/kg/injection, schedule: Q04DX003 (ip), vehicle: Klucel (hydroxypropylcellulose) (HPC)
[11] = dose: 200.0 mg/kg/injection, schedule: Q04DX003 (ip), vehicle: saline with Tween-80
[12] = dose: 100.0 mg/kg/injection, schedule: Q04DX002 (ip), vehicle: Klucel (hydroxypropylcellulose) (HPC)
[13] = dose: 200.0 mg/kg/injection, schedule: Q04DX002 (ip), vehicle: Klucel (hydroxypropylcellulose) (HPC)
[14] = dose: 400.0 mg/kg/injection, schedule: Q04DX002 (ip), vehicle: Klucel (hydroxypropylcellulose) (HPC)

Measured: T/C

CC1C(C)(C)C12C=CC=C2 (stereo not drawn)
inactive: [1] 102 % of control | [2] 96 % of control | [3] 96 % of control

CC1CC(C#N)Nc2ccccc2N1 (stereo not drawn)
inactive: dose: 50.0 mg/kg/injection, schedule: Q01DX001 (ip), vehicle: Klucel (hydroxypropylcellulose) (HPC) 109 % of control | dose: 50.0 mg/kg/injection, schedule: Q01DX009 (ip), vehicle: Klucel (hydroxypropylcellulose) (HPC) 96 % of control | dose: 50.0 mg/kg/injection, schedule: Q04DX003 (ip), vehicle: Klucel (hydroxypropylcellulose) (HPC) 98 % of control | [4] 106 % of control | [5] 93 % of control and 121 % of control | [6] 100 % of control and 104 % of control | [7] 104 % of control | [8] 86 % of control | [9] 96 % of control and 90 % of control | [10] 101 % of control

CCOC(=O)c1cc([N+](=O)[O-])ccc1N=Nc1cc(OC)c(N)cc1OC
inactive: dose: 100.0 mg/kg/injection, schedule: Q01DX001 (ip), vehicle: other 111 % of control | dose: 200.0 mg/kg/injection, schedule: Q01DX001 (ip), vehicle: other 103 % of control | dose: 400.0 mg/kg/injection, schedule: Q01DX001 (ip), vehicle: other 103 % of control

CC(=O)OCCC#CCCCO
inactive: dose: 100.0 mg/kg/injection, schedule: Q01DX009 (ip), vehicle: saline with Tween-80 90 % of control | dose: 200.0 mg/kg/injection, schedule: Q01DX009 (ip), vehicle: saline with Tween-80 98 % of control | dose: 400.0 mg/kg/injection, schedule: Q01DX009 (ip), vehicle: saline with Tween-80 97 % of control

CCCN1CC(Br)C(=O)NC1=O (stereo not drawn)
inactive: dose: 100.0 mg/kg/injection, schedule: Q01DX Z (ip), vehicle: methylcellulose (MC) 90 % of control

O=S(=O)(c1ccccc1)C(CCCC(C(O)(c1ccccc1)c1ccccc1)S(=O)(=O)c1ccccc1)C(O)(c1ccccc1)c1ccccc1 (stereo not drawn)
inactive: dose: 100.0 mg/kg/injection, schedule: Q04DX003 (ip), vehicle: saline with Tween-80 98 % of control | [11] 100 % of control | dose: 400.0 mg/kg/injection, schedule: Q04DX003 (ip), vehicle: saline with Tween-80 105 % of control

CCOC(=O)NC(=O)Nc1ncn[nH]1
inactive: dose: 100.0 mg/kg/injection, schedule: Q04DX003 (ip), vehicle: saline 97 % of control | dose: 200.0 mg/kg/injection, schedule: Q04DX003 (ip), vehicle: saline 94 % of control | dose: 400.0 mg/kg/injection, schedule: Q04DX003 (ip), vehicle: saline 94 % of control

CCCCCOP(=O)(OCCCCC)C(c1ccccc1)c1ccccc1
inactive: dose: 100.0 mg/kg/injection, schedule: Q04DX002 (ip), vehicle: saline 100 % of control | dose: 200.0 mg/kg/injection, schedule: Q04DX002 (ip), vehicle: saline 100 % of control | dose: 400.0 mg/kg/injection, schedule: Q04DX002 (ip), vehicle: saline 96 % of control

C=C1C(=O)O[C@H]2C=C(C)[C@H]3[C@@H](OC(C)=O)C[C@@](C)(O)[C@@H]3C[C@H]12
inactive: dose: 50.0 mg/kg/injection, schedule: Q01DX Z (ip), vehicle: carboxymethylcellulose (CMC) 94 % of control

CC(=O)/C=C1\C(=O)Nc2ccccc21
inactive: [12] 104 % of control | [13] 89 % of control | [14] 91 % of control

CCOC(=O)C1(C)CCCC1=O (stereo not drawn)
inactive: dose: 100.0 mg/kg/injection, schedule: Q01DX009 (ip), vehicle: saline sonified 94 % of control | dose: 200.0 mg/kg/injection, schedule: Q01DX009 (ip), vehicle: saline sonified 97 % of control | dose: 400.0 mg/kg/injection, schedule: Q01DX009 (ip), vehicle: saline sonified 95 % of control

CN1CCC(OC(c2ccccc2)c2ccccc2)CC1
inactive: dose: 20.0 mg/kg/injection, schedule: Q01DX009 (ip), vehicle: saline 107 % of control | dose: 20.0 mg/kg/injection, schedule: Q04DX003 (ip), vehicle: saline 108 % of control | dose: 40.0 mg/kg/injection, schedule: Q01DX009 (ip), vehicle: saline 113 % of control | dose: 40.0 mg/kg/injection, schedule: Q04DX003 (ip), vehicle: saline 105 % of control | dose: 80.0 mg/kg/injection, schedule: Q04DX003 (ip), vehicle: saline 95 % of control

COc1ccc(-c2nc(N)nc3c2CN(CCC(=O)O)C3=O)cc1
inactive: [1] 100 % of control | [2] 95 % of control | [3] 94 % of control

Cc1nc(-c2ccc3ccc4cccnc4c3n2)no1
inactive: dose: 50.0 mg/kg/injection, schedule: Q04DX003 (ip), vehicle: saline with Tween-80 93 % of control | [11] 86 % of control

COc1cc2c(cc1OC)C1=CC(=O)N3CCCC34OS(=O)OC14CC2 (stereo not drawn)
inactive: [5] 97 % of control | [6] 98 % of control | [8] 100 % of control | [9] 96 % of control | dose: 400.0 mg/kg/injection, schedule: Q01DX009 (ip), vehicle: Klucel (hydroxypropylcellulose) (HPC) 96 % of control | [10] 96 % of control

O=S1C=Cc2ccccc21 (stereo not drawn)
inactive: [12] 101 % of control | [13] 116 % of control | [14] 105 % of control

S=C([S][Sb]([c]1ccccc1)[c]1ccccc1)N(c1ccccc1)c1ccccc1
inactive: dose: 5.0 mg/kg/injection, schedule: Q01DX001 (ip), vehicle: other 102 % of control | dose: 10.0 mg/kg/injection, schedule: Q01DX001 (ip), vehicle: other 102 % of control | dose: 20.0 mg/kg/injection, schedule: Q01DX001 (ip), vehicle: other 98 % of control | dose: 40.0 mg/kg/injection, schedule: Q01DX001 (ip), vehicle: other 107 % of control

N[n+]1ccccc1
inactive: dose: 100.0 mg/kg/injection, schedule: Q04DX002 (ip), vehicle: saline with Tween-80 102 % of control | dose: 200.0 mg/kg/injection, schedule: Q04DX002 (ip), vehicle: saline with Tween-80 102 % of control | dose: 400.0 mg/kg/injection, schedule: Q04DX002 (ip), vehicle: saline with Tween-80 98 % of control

CCCCCCCCCCCCCCCCSCCCCCCCCCCCSCCCCCCCCCCCCCCCC
inactive: [4] 89 % of control | [7] 94 % of control | dose: 400.0 mg/kg/injection, schedule: Q01DX001 (ip), vehicle: Klucel (hydroxypropylcellulose) (HPC) 102 % of control

O=C(c1ccc([N+](=O)[O-])cc1)N1C2CCCCCCC21 (stereo not drawn)
inactive: dose: 50.0 mg/kg/injection, schedule: Q01DX009 (ip), vehicle: saline 121 % of control | [1] 94 % of control | dose: 100.0 mg/kg/injection, schedule: Q01DX009 (ip), vehicle: saline 113 % of control | [2] 89 % of control | dose: 200.0 mg/kg/injection, schedule: Q01DX009 (ip), vehicle: saline 110 % of control

Cc1cc(NS(=O)(=O)c2ccc(N=Nc3c(N)nc(N)[nH]c3=O)cc2)nc(C)n1
inactive: [1] 97 % of control | [2] 89 % of control | [3] 92 % of control
